# Earlier results as cited in US11382901B2, “Tropicamide-based ophthalmic formulations” (FOR HEALTH PHARMA S.R.L., priority 2017, dated 2022).
# Columns and labels:
# [1] = system: NIH/3T3 cells (murine fibroblasts)
# [2] = system: RAW 264.7 cells (murine macrophage-like)
substance,measurement,setting,value
tyloxapol,in vitro toxicity,[1],considerable in vitro toxicity
same,in vitro toxicity,[2],considerable in vitro toxicity
